The values that follow are results of earlier work, collected in US20040086492A1, “Method of treating tumor and consignment system of proliferating and processing activated lymphocytes to be used in parallel to pdt” (priority 2001, published 2004).

For the data set the following is noted: stated as a characteristic of Photofrin.

As for porfirmer sodium [Photofrin], the “rate taken into cancerous tissue relative to normal tissue” value was “approximately 10 times”.
